Reference: patent US9598421B2, “Imidazopyridazine compounds” (Pfizer Inc., priority 2014, dated 2017)
Like-named read-outs stand apart in the source and are kept apart here.

Experiments:
Type in all cases: biochemical
Human PDE4A = Human PDE4A (Homo sapiens (Human), UniProt P27815); experiment: PDE4A Scintillation Proximity Assay (SPA), inhibition of enzyme activity; details: read-out: Human PDE4A FL
Human PDE4C = Human PDE4C (Homo sapiens (Human), UniProt Q08493); experiment: PDE4C Scintillation Proximity Assay (SPA), inhibition of enzyme activity; details: read-out: Human PDE4C FL
Chain of Human PDE4C (Q08493 2-712): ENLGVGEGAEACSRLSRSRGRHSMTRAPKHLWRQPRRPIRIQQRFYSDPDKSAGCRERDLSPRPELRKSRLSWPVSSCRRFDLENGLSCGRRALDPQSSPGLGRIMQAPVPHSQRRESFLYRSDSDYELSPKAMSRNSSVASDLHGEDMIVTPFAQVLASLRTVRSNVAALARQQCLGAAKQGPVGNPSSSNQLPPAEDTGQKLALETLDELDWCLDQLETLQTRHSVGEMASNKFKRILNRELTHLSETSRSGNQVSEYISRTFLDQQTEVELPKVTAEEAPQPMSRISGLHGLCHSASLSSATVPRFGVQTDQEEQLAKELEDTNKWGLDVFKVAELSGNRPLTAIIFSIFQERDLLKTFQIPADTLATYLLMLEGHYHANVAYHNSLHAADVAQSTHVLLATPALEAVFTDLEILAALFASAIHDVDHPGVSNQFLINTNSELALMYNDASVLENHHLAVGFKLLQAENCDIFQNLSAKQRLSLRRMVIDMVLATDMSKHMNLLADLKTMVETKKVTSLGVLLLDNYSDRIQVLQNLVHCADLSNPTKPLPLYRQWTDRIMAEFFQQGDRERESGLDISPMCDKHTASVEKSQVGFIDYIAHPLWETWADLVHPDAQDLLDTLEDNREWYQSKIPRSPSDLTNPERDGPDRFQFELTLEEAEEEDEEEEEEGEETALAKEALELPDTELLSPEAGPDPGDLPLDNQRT
Description: The PDE4A3, PDE4B1, PDE4C1 and PDE4D3 assays use the Scintillation Proximity Assay (SPA) technology to measure the inhibition of human recombinant PDE4A1, PDE4B3, PDE4C1, and PDE4D3 enzyme activity by compounds in vitro. The PDE4A1, PDE4B3, PDE4C1, and PDE4D3 assays are run in parallel using identical parameters, except for the concentration of enzyme (80 pM PDE4A3, 40 pM PDE4B3, 40 pM PDE4C1 and 10 pM PDE4D). […] Reactions are incubated for 30 min at 25° C. The addition of 20 uL of 8 mg/ml yitrium silicate SPA beads (Perkin Elmer) stops the reaction. The plates are sealed (TopSeal, Perkin Elmer) and the beads are allowed to settle for 8 hrs, after which they are read on the Trilux Microbeta overnight.

Human PDE4D = Human PDE4D (Homo sapiens (Human), UniProt Q08499); experiment: PDE4D Scintillation Proximity Assay (SPA), inhibition of enzyme activity; details: read-out: Human PDE4D FL
Chain of Human PDE4D (Q08499 186-808): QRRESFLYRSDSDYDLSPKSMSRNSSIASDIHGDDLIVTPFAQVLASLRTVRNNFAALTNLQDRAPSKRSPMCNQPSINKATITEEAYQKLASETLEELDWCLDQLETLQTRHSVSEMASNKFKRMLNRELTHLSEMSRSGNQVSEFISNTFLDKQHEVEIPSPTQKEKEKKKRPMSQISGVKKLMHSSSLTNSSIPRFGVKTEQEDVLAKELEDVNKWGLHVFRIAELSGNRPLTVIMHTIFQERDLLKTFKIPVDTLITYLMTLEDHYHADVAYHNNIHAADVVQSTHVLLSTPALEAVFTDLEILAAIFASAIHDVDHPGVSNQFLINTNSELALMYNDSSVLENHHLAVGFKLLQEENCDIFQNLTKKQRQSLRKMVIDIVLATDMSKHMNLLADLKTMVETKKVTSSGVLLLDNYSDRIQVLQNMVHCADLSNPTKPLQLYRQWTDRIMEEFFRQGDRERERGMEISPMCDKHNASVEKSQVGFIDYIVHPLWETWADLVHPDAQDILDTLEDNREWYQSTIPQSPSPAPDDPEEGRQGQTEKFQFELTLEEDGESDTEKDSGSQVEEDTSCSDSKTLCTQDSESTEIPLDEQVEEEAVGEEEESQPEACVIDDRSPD

[1] = human recombinant enzyme, 1 μM cAMP substrate, 30 min at 25° C., geometric mean of 2-9 determinations unless otherwise indicated

Chain of Human PDE4A (P27815 other isoform, or with tags, fused parts or gaps): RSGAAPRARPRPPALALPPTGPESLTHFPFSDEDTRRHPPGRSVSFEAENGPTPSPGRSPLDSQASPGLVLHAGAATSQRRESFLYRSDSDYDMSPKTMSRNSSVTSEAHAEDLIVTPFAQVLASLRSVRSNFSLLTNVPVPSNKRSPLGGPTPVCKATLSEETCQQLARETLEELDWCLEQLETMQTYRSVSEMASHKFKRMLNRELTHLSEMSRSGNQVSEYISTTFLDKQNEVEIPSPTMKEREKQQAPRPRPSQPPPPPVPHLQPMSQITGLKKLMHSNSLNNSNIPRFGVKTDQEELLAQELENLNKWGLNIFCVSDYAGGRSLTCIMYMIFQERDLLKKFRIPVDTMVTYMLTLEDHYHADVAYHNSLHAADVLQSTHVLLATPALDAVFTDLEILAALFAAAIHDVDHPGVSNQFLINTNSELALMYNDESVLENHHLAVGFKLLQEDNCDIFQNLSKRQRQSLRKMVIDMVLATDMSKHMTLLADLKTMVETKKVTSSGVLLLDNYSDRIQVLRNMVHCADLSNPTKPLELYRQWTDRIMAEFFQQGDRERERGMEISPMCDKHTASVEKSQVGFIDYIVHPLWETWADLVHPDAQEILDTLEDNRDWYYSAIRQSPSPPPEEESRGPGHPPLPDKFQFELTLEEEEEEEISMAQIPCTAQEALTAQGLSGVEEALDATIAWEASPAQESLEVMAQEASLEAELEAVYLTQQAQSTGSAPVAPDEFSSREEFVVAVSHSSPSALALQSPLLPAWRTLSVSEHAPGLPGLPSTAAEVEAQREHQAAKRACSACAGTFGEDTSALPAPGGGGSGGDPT

In the case of `CCCNC(=O)c1nc2cccnn2c1-c1ccc(Cl)c(F)c1` [Example 29, 3-(4-chloro-3-fluorophenyl)-N-propylimidazo[1,2-b]pyridazine-2-carboxamide], the IC50 (Human PDE4A; [1]) is reported as 3.48 nM, the IC50 (Human PDE4C; [1]) is reported as 13.8 nM and the IC50 (Human PDE4D; [1]) is reported as 409 nM.

`O=C(Nc1ncccn1)c1nc2cccnn2c1-c1ccc(Cl)cc1` [Example 101, 3-(4-chlorophenyl)-N-(pyrimidin-2-yl)imidazo[1,2-b]pyridazine-2-carboxamide] showed an IC50 (Human PDE4A; [1]) of 268 nM, an IC50 (Human PDE4C; [1]) of 1180 nM and an IC50 (Human PDE4D; [1]) of over 25900 nM.

In the case of `CCCNC(=O)c1nc2cccnn2c1-c1cncc(Cl)c1` [Example 48, 3-(5-chloropyridin-3-yl)-N-propylimidazo[1,2-b]pyridazine-2-carboxamide], the IC50 (Human PDE4A; [1]) is reported as 768 nM, the IC50 (Human PDE4C; [1]) is reported as 212 nM and the IC50 (Human PDE4D; [1]) is reported as over 7670 nM.

For `N#Cc1cc(F)c(-c2c(C(=O)NC3CC3)nc3cccnn23)cc1F` [Example 92, 3-(4-cyano-2,5-difluorophenyl)-N-cyclopropylimidazo[1,2-b]pyridazine-2-carboxamide], the IC50 (Human PDE4A; [1]) was 5.52 nM, the IC50 (Human PDE4C; [1]) was 42.5 nM and the IC50 (Human PDE4D; [1]) was over 1440 nM.

Compound `O=C(c1nc2cccnn2c1-c1ccc(Cl)cc1F)N1CCC1` [Example 52, azetidin-1-yl[3-(4-chloro-2-fluorophenyl)imidazo[1,2-b]pyridazin-2-yl]methanone] has an IC50 (Human PDE4A; [1]) of 24.3 nM, an IC50 (Human PDE4C; [1]) of 113 nM and an IC50 (Human PDE4D; [1]) of 5510 nM.

`O=C(NC1CC1)c1nc2cccnn2c1-c1cc(F)c(Cl)cc1F` [Example 9, 3-(4-Chloro-2,5-difluorophenyl)-N-cyclopropylimidazo[1,2-b]pyridazine-2-carboxamide] was tested, and the IC50 (Human PDE4A; [1]) was 3.83 nM, the IC50 (Human PDE4C; [1]) was 40.9 nM and the IC50 (Human PDE4D; [1]) was 1490 nM.

`COC1CN(C(=O)c2nc3cccnn3c2-c2ccc(Cl)cc2)C1` [Example 31, [3-(4-chlorophenyl)imidazo[1,2-b]pyridazin-2-yl](3-methoxyazetidin-1-yl)methanone] showed an IC50 (Human PDE4A; [1]) of 2820 nM, an IC50 (Human PDE4C; [1]) of 5810 nM and an IC50 (Human PDE4D; [1]) of under 26200 nM.

For `COc1ccc(-c2c(C(=O)N3CCC3)nc3cccnn23)cc1F` [Example 55, azetidin-1-yl[3-(3-fluoro-4-methoxyphenyl)imidazo[1,2-b]pyridazin-2-yl]methanone], the IC50 (Human PDE4A; [1]) was 176 nM, the IC50 (Human PDE4C; [1]) was over 1550 nM and the IC50 (Human PDE4D; [1]) was over 20900 nM.

`CCCNC(=O)c1nc2cccnn2c1-c1ccc(Cl)cc1` [Example 26, 3-(4-chlorophenyl)-N-propylimidazo[1,2-b]pyridazine-2-carboxamide] gave an IC50 (Human PDE4A; [1]) of 85.5 nM, an IC50 (Human PDE4C; [1]) of 111 nM and an IC50 (Human PDE4D; [1]) of 3800 nM.

Work on `O=C(c1nc2cccnn2c1-c1ccc2c(c1)CCO2)N1CCC1` [Example 50, azetidin-1-yl[3-(2,3-dihydro-1-benzofuran-5-yl)imidazo[1,2-b]pyridazin-2-yl]methanone] yielded an IC50 (Human PDE4A; [1]) of 28.1 nM, an IC50 (Human PDE4C; [1]) of 235 nM and an IC50 (Human PDE4D; [1]) of 3140 nM.

Compound `O=C(NC1CC1)c1nc2cccnn2c1-c1ccc2ccnn2c1` [Example 22, N-cyclopropyl-3-(pyrazolo[1,5-a]pyridin-6-yl)imidazo[1,2-b]pyridazine-2-carboxamide] has an IC50 (Human PDE4A; [1]) of 27.6 nM, an IC50 (Human PDE4C; [1]) of 71.2 nM and an IC50 (Human PDE4D; [1]) of 1890 nM.

In the case of `O=C(c1nc2cccnn2c1-c1cc(F)c(Cl)c(F)c1)N1CCC1` [Example 47, azetidin-1-yl[3-(4-chloro-3,5-difluorophenyl)imidazo[1,2-b]pyridazin-2-yl]methanone], the IC50 (Human PDE4A; [1]) is reported as 7.37 nM, the IC50 (Human PDE4C; [1]) is reported as 23.9 nM and the IC50 (Human PDE4D; [1]) is reported as 334 nM.

Work on `Cc1ccc(-c2c(C(=O)N[C@@H]3C[C@@H]3F)nc3cccnn23)cc1Cl` [Example 71, 3-(3-chloro-4-methylphenyl)-N-[(1R,2S)-2-fluorocyclopropyl]imidazo[1,2-b]pyridazine-2-carboxamide] yielded an IC50 (Human PDE4A; [1]) of under 0.669 nM, an IC50 (Human PDE4C; [1]) of 2 nM and an IC50 (Human PDE4D; [1]) of 113 nM.

`O=C(NCC1CC1)c1nc2cccnn2c1-c1ccc(Cl)cc1` [Example 102, 3-(4-chlorophenyl)-N-(cyclopropylmethyl)imidazo[1,2-b]pyridazine-2-carboxamide] showed an IC50 (Human PDE4A; [1]) of 59.9 nM, an IC50 (Human PDE4C; [1]) of 76 nM and an IC50 (Human PDE4D; [1]) of 5010 nM.

`O=C(c1nc2cccnn2c1-c1ccc(Cl)c(Cl)c1)N1CCC1` [Example 83, azetidin-1-yl[3-(3,4-dichlorophenyl)imidazo[1,2-b]pyridazin-2-yl]methanone] showed an IC50 (Human PDE4A; [1]) of 6.21 nM, an IC50 (Human PDE4C; [1]) of 40 nM and an IC50 (Human PDE4D; [1]) of 495 nM.

`CNC(=O)c1nc2cccnn2c1-c1cc(F)c(Cl)cc1C` [Example 25, 3-(4-chloro-5-fluoro-2-methylphenyl)-N-methylimidazo[1,2-b]pyridazine-2-carboxamide] showed an IC50 (Human PDE4A; [1]) of 38.6 nM, an IC50 (Human PDE4C; [1]) of 150 nM and an IC50 (Human PDE4D; [1]) of 4970 nM.

In the case of `O=C(c1nc2cccnn2c1-c1ccnc(OC(F)F)c1)N1CCC1` [Example 76, azetidin-1-yl{3-[2-(difluoromethoxy)pyridin-4-yl]imidazo[1,2-b]pyridazin-2-yl}methanone], the IC50 (Human PDE4A; [1]) is reported as 7.09 nM, the IC50 (Human PDE4C; [1]) is reported as 22.2 nM and the IC50 (Human PDE4D; [1]) is reported as 94.5 nM.

Compound `CCNC(=O)c1nc2cccnn2c1-c1cc(F)c(C#N)cc1C` [Example 98, 3-(4-cyano-5-fluoro-2-methylphenyl)-N-ethylimidazo[1,2-b]pyridazine-2-carboxamide] has an IC50 (Human PDE4A; [1]) of 26.6 nM, an IC50 (Human PDE4C; [1]) of 107 nM and an IC50 (Human PDE4D; [1]) of 3320 nM.

`O=C(NC1CC1)c1nc2cccnn2c1-c1cccc(Cl)c1` [Example 36, 3-(3-chlorophenyl)-N-cyclopropylimidazo[1,2-b]pyridazine-2-carboxamide] was tested, and the IC50 (Human PDE4A; [1]) was 23.7 nM, the IC50 (Human PDE4C; [1]) was 21 nM and the IC50 (Human PDE4D; [1]) was 254 nM.

For `O=C(NC1CC1)c1nc2cccnn2c1-c1ccc(Cl)cc1` [Example 2, 3-(4-Chlorophenyl)-N-cyclopropylimidazo[1,2-b]pyridazine-2-carboxamide], the IC50 (Human PDE4A) was 10.7 nM, the IC50 (Human PDE4C) was 27.9 nM and the IC50 (Human PDE4D) was 4340 nM.

`CC1(NC(=O)c2nc3cccnn3c2-c2ccc(Cl)cc2)CC1` [Example 33, 3-(4-chlorophenyl)-N-(1-methylcyclopropyl)imidazo[1,2-b]pyridazine-2-carboxamide] gave an IC50 (Human PDE4A; [1]) of 58.6 nM, an IC50 (Human PDE4C; [1]) of 127 nM and an IC50 (Human PDE4D; [1]) of 2330 nM.

With `CCNC(=O)c1nc2cccnn2c1-c1ccc(Cl)cc1` [Example 85, 3-(4-chlorophenyl)-N-ethylimidazo[1,2-b]pyridazine-2-carboxamide] the IC50 (Human PDE4A; [1]) was 25.6 nM, the IC50 (Human PDE4C; [1]) was 47.2 nM and the IC50 (Human PDE4D; [1]) was 6700 nM.

Compound `CNC(=O)c1nc2cccnn2c1-c1ccc(Cl)c(F)c1` [Example 94, 3-(4-chloro-3-fluorophenyl)-N-methylimidazo[1,2-b]pyridazine-2-carboxamide] has an IC50 (Human PDE4A; [1]) of 24.9 nM, an IC50 (Human PDE4C; [1]) of 65 nM and an IC50 (Human PDE4D; [1]) of 5380 nM.

Work on `Cc1cc(C#N)c(F)cc1-c1c(C(=O)N2CCC2)nc2cccnn12` [Example 20, 4-[2-(azetidin-1-ylcarbonyl)imidazo[1,2-b]pyridazin-3-yl]-2-fluoro-5-methylbenzonitrile] yielded an IC50 (Human PDE4A; [1]) of 6.7 nM, an IC50 (Human PDE4C; [1]) of 74.8 nM and an IC50 (Human PDE4D; [1]) of 490 nM.

For `N#Cc1ccc(-c2c(C(=O)NC3CC3)nc3cccnn23)c(F)c1` [Example 79, 3-(4-cyano-2-fluorophenyl)-N-cyclopropylimidazo[1,2-b]pyridazine-2-carboxamide], the IC50 (Human PDE4A; [1]) was 48.8 nM, the IC50 (Human PDE4C; [1]) was 297 nM and the IC50 (Human PDE4D; [1]) was over 25400 nM.

For `O=C(c1nc2cccnn2c1-c1ccc2ccnn2c1)N1CCC1` [Example 8, Azetidin-1-yl[3-(pyrazolo[1,5-a]pyridin-6-yl)imidazo[1,2-b]pyridazin-2-yl]methanone], the IC50 (Human PDE4A; [1]) was 20 nM and the IC50 (Human PDE4D; [1]) was 5440 nM.

With `O=C(c1nc2cccnn2c1-c1ccc(Cl)cc1)N1CCC1` [Example 1, Azetidin-1-yl[3-(4-chlorophenyl)imidazo[1,2-b]pyridazin-2-yl]methanone] the IC50 (Human PDE4C) was 130 nM and the IC50 (Human PDE4D) was 10300 nM.
